The values below are quoted from earlier work in PubChem BioAssay AID1259409 (Chemical Carcinogenesis Research Information System (CCRIS), 2018).

The test system of this data set is rodent chemically induced tumor inhibition, incidence and multiplicity. Put plainly: CCRIS tumor inhibitor studies. Particulars: Dose [Inhibitor]: 0, Route [Inhibitor]: ORAL.

On to `O=C(O)c1ccc(O)c(O)c1`, for which the “tumour outcome (control, treated, inhibition, significance)” value runs as follows: (Carcinogen: N-BUTYL-N-(4-HYDROXYBUTYL)NITROSAMINE, 3817-11-6, 2000 PPM IN DIET FOR 33 WK BEGINNING 1 WK POST CARCINOGEN TREATMENT (STUDY DURATION: 41 WK), Species: RAT, Strain/Sex: F344/MALE, Target Tissue: Type of Lesion: BLADDER: CARCINOMA, Dose [Carcinogen]: 0.05% IN DRINKING WATER FOR 6 WK, Promoter: NONE USED) 17/22 (77%), 11/27 (41%), 47%, p<0.03; (Carcinogen: N-BUTYL-N-(4-HYDROXYBUTYL)NITROSAMINE, 3817-11-6, 2000 PPM IN DIET FOR 33 WK BEGINNING 1 WK POST CARCINOGEN TREATMENT (STUDY DURATION: 41 WK), Species: RAT, Strain/Sex: F344/MALE, Target Tissue: Type of Lesion: BLADDER: PAPILLOMA, Dose [Carcinogen]: 0.05% IN DRINKING WATER FOR 6 WK, Promoter: NONE USED) 1/22 (5%), 1/27 (4%), 20%, not significant; (Carcinogen: N-METHYL-N-NITROSOUREA, 684-93-5, 1000 PPM IN DIET FOR 14 WK BEGINNING 1 WK PRIOR TO CARCINOGEN TREATMENT (STUDY DURATION: 32 WK), Species: RAT, Strain/Sex: F344/MALE, Target Tissue: Type of Lesion: GLANDULAR STOMACH: ADENOCARCINOMA, Dose [Carcinogen]: 400 PPM IN DRINKING WATER FOR 12 WK, Promoter: NONE USED) 59%, 18%, 69%, p<0.05; (Carcinogen: N-METHYL-N-NITROSOUREA, 684-93-5, 1000 PPM IN DIET FOR 14 WK BEGINNING 1 WK PRIOR TO CARCINOGEN TREATMENT (STUDY DURATION: 36 WK), Species: RAT, Strain/Sex: F344/MALE, Target Tissue: Type of Lesion: GLANDULAR STOMACH: ADENOCARCINOMA, Dose [Carcinogen]: 400 PPM IN DRINKING WATER FOR 12 WK, Promoter: NONE USED) 13/22 (59%), 4/22 (18%), 69%, p<0.05; (Carcinogen: N-NITROSOBIS(2-OXOPROPYL)AMINE, 60599-38-4, 500 PPM IN DIET FOR 49 WK BEGINNING 1 WK POST CARCINOGEN LAST TREATMENT (STUDY DURATION: 51 WK), Species: HAMSTER, Strain/Sex: SYRIAN/FEMALE, Target Tissue: Type of Lesion: KIDNEY: ADENOCARCINOMA, Dose [Carcinogen]: 20 MG/KG BW 1/WK FOR 2 WK) 7%, 7%, 0%, not significant; (Carcinogen: N-NITROSOBIS(2-OXOPROPYL)AMINE, 60599-38-4, 500 PPM IN DIET FOR 49 WK BEGINNING 1 WK POST CARCINOGEN LAST TREATMENT (STUDY DURATION: 51 WK), Species: HAMSTER, Strain/Sex: SYRIAN/FEMALE, Target Tissue: Type of Lesion: LIVER: CHOLANGIOCELLULAR CARCINOMA, Dose [Carcinogen]: 20 MG/KG BW 1/WK FOR 2 WK) 65.5%, 59%, 12%, not significant. The “tumour outcome (control, treated, inhibition, significance)” value was 3%, 0%, 100%, not significant (Carcinogen: N-NITROSOBIS(2-OXOPROPYL)AMINE, 60599-38-4, 500 PPM IN DIET FOR 49 WK BEGINNING 1 WK POST CARCINOGEN LAST TREATMENT (STUDY DURATION: 51 WK), Species: HAMSTER, Strain/Sex: SYRIAN/FEMALE, Target Tissue: Type of Lesion: LIVER: HEMANGIOMA, Dose [Carcinogen]: 20 MG/KG BW 1/WK FOR 2 WK); 72%, 79%, -9%, not significant (Carcinogen: N-NITROSOBIS(2-OXOPROPYL)AMINE, 60599-38-4, 500 PPM IN DIET FOR 49 WK BEGINNING 1 WK POST CARCINOGEN LAST TREATMENT (STUDY DURATION: 51 WK), Species: HAMSTER, Strain/Sex: SYRIAN/FEMALE, Target Tissue: Type of Lesion: LIVER: HEPATOCELLULAR ADENOMA, Dose [Carcinogen]: 20 MG/KG BW 1/WK FOR 2 WK); 17%, 14%, 20%, not significant (Carcinogen: N-NITROSOBIS(2-OXOPROPYL)AMINE, 60599-38-4, 500 PPM IN DIET FOR 49 WK BEGINNING 1 WK POST CARCINOGEN LAST TREATMENT (STUDY DURATION: 51 WK), Species: HAMSTER, Strain/Sex: SYRIAN/FEMALE, Target Tissue: Type of Lesion: LIVER: HEPATOCELLULAR CARCINOMA, Dose [Carcinogen]: 20 MG/KG BW 1/WK FOR 2 WK); 33%, 33%, 0%, not significant (Carcinogen: N-NITROSOBIS(2-OXOPROPYL)AMINE, 60599-38-4, 500 PPM IN DIET FOR 49 WK BEGINNING 1 WK POST CARCINOGEN LAST TREATMENT (STUDY DURATION: 51 WK), Species: HAMSTER, Strain/Sex: SYRIAN/FEMALE, Target Tissue: Type of Lesion: LUNG: ADENOCARCINOMA, Dose [Carcinogen]: 20 MG/KG BW 1/WK FOR 2 WK); 83%, 87%, -4%, not significant (Carcinogen: N-NITROSOBIS(2-OXOPROPYL)AMINE, 60599-38-4, 500 PPM IN DIET FOR 49 WK BEGINNING 1 WK POST CARCINOGEN LAST TREATMENT (STUDY DURATION: 51 WK), Species: HAMSTER, Strain/Sex: SYRIAN/FEMALE, Target Tissue: Type of Lesion: LUNG: ADENOMA, Dose [Carcinogen]: 20 MG/KG BW 1/WK FOR 2 WK); 3%, 3%, 0%, not significant (Carcinogen: N-NITROSOBIS(2-OXOPROPYL)AMINE, 60599-38-4, 500 PPM IN DIET FOR 49 WK BEGINNING 1 WK POST CARCINOGEN LAST TREATMENT (STUDY DURATION: 51 WK), Species: HAMSTER, Strain/Sex: SYRIAN/FEMALE, Target Tissue: Type of Lesion: OVARY: CYSTADENOMA, Dose [Carcinogen]: 20 MG/KG BW 1/WK FOR 2 WK). The “tumour outcome (control, treated, inhibition, significance)” value (Carcinogen: N-NITROSOBIS(2-OXOPROPYL)AMINE, 60599-38-4, 500 PPM IN DIET FOR 49 WK BEGINNING 1 WK POST CARCINOGEN LAST TREATMENT (STUDY DURATION: 51 WK), Species: HAMSTER, Strain/Sex: SYRIAN/FEMALE, Target Tissue: Type of Lesion: PANCREAS: ADENOCARCINOMA, Dose [Carcinogen]: 20 MG/KG BW 1/WK FOR 2 WK) is on record as 86%, 90%, -4%, not significant; the “tumour outcome (control, treated, inhibition, significance)” value (Carcinogen: N-NITROSOBIS(2-OXOPROPYL)AMINE, 60599-38-4, 1000 PPM IN DIET FOR 49 WK BEGINNING 1 WK POST CARCINOGEN LAST TREATMENT (STUDY DURATION: 51 WK), Species: HAMSTER, Strain/Sex: SYRIAN/FEMALE, Target Tissue: Type of Lesion: LIVER: CHOLANGIOCELLULAR ADENOMA, Dose [Carcinogen]: 20 MG/KG BW 1/WK FOR 2 WK) is on record as 31%, 34%, -11%, not significant; the “tumour outcome (control, treated, inhibition, significance)” value (Carcinogen: N-NITROSOBIS(2-OXOPROPYL)AMINE, 60599-38-4, 1000 PPM IN DIET FOR 49 WK BEGINNING 1 WK POST CARCINOGEN LAST TREATMENT (STUDY DURATION: 51 WK), Species: HAMSTER, Strain/Sex: SYRIAN/FEMALE, Target Tissue: Type of Lesion: LIVER: CHOLANGIOCELLULAR CARCINOMA, Dose [Carcinogen]: 20 MG/KG BW 1/WK FOR 2 WK) is 65%, 55%, 16%, not significant; the “tumour outcome (control, treated, inhibition, significance)” value (Carcinogen: N-NITROSOBIS(2-OXOPROPYL)AMINE, 60599-38-4, 1000 PPM IN DIET FOR 49 WK BEGINNING 1 WK POST CARCINOGEN LAST TREATMENT (STUDY DURATION: 51 WK), Species: HAMSTER, Strain/Sex: SYRIAN/FEMALE, Target Tissue: Type of Lesion: LIVER: HEPATOCELLULAR ADENOMA, Dose [Carcinogen]: 20 MG/KG BW 1/WK FOR 2 WK) is 72% 59%, 19%, not significant; the “tumour outcome (control, treated, inhibition, significance)” value (Carcinogen: N-NITROSOBIS(2-OXOPROPYL)AMINE, 60599-38-4, 1000 PPM IN DIET FOR 49 WK BEGINNING 1 WK POST CARCINOGEN LAST TREATMENT (STUDY DURATION: 51 WK), Species: HAMSTER, Strain/Sex: SYRIAN/FEMALE, Target Tissue: Type of Lesion: LIVER: HEPATOCELLULAR CARCINOMA, Dose [Carcinogen]: 20 MG/KG BW 1/WK FOR 2 WK) is reported as 17%, 21%, -20%, not significant; the “tumour outcome (control, treated, inhibition, significance)” value (Carcinogen: N-NITROSOBIS(2-OXOPROPYL)AMINE, 60599-38-4, 1000 PPM IN DIET FOR 49 WK BEGINNING 1 WK POST CARCINOGEN LAST TREATMENT (STUDY DURATION: 51 WK), Species: HAMSTER, Strain/Sex: SYRIAN/FEMALE, Target Tissue: Type of Lesion: LUNG: ADENOCARCINOMA, Dose [Carcinogen]: 20 MG/KG BW 1/WK FOR 2 WK) is listed as 33%, 39%, -18%, not significant. Also, the “tumour outcome (control, treated, inhibition, significance)” value by setting is: (Carcinogen: N-NITROSOBIS(2-OXOPROPYL)AMINE, 60599-38-4, 1000 PPM IN DIET FOR 49 WK BEGINNING 1 WK POST CARCINOGEN LAST TREATMENT (STUDY DURATION: 51 WK), Species: HAMSTER, Strain/Sex: SYRIAN/FEMALE, Target Tissue: Type of Lesion: LUNG: ADENOMA, Dose [Carcinogen]: 20 MG/KG BW 1/WK FOR 2 WK) 83%, 89%, -7%, not significant; (Carcinogen: N-NITROSOBIS(2-OXOPROPYL)AMINE, 60599-38-4, 1000 PPM IN DIET FOR 49 WK BEGINNING 1 WK POST CARCINOGEN LAST TREATMENT (STUDY DURATION: 51 WK), Species: HAMSTER, Strain/Sex: SYRIAN/FEMALE, Target Tissue: Type of Lesion: PANCREAS: ADENOCARCINOMA, Dose [Carcinogen]: 20 MG/KG BW 1/WK FOR 2 WK) 86%, 90%, -4%, not significant.
